The NIST ThermoML archive (doi:10.1016/j.jct.2013.05.051)

Experiment: xn = mol fraction of the nth substance listed
Details: Liquid, Vibrating tube method

CCCCCCCO [heptan-1-ol] + CCCCCCC
mass density [kg/m3]
Details | x1 = 0.1493 | x1 = 0.3215 | x1 = 0.5226 | x1 = 0.6698 | x1 = 0.8469 | x1 = 1
333.15 K, 140000 kPa | – | 779.8 | 804.5 | 823.2 | 851.4 | 864.3
353.15 K, 100 kPa | 654.4 | 676.1 | 705.8 | 728.5 | 762.3 | 778.1
353.15 K, 1000 kPa | 655.7 | 677.3 | 706.8 | 729.4 | 763.1 | 778.8
353.15 K, 5000 kPa | 661.2 | 682.2 | 711.3 | 733.6 | 766.7 | 782.3
353.15 K, 10000 kPa | 667.4 | 687.9 | 716.4 | 738.3 | 771 | 786.3
353.15 K, 15000 kPa | 673.1 | 693.2 | 721.3 | 742.9 | 775.2 | 790.2
353.15 K, 20000 kPa | 678.4 | 698.2 | 725.8 | 747.1 | 779 | 793.9
353.15 K, 25000 kPa | 683.2 | 702.8 | 730.1 | 751.1 | 782.7 | 797.3
353.15 K, 30000 kPa | 687.9 | 707.1 | 734.2 | 755 | 786.3 | 800.7
353.15 K, 35000 kPa | 692.2 | 711.1 | 738 | 758.6 | 789.6 | 804
353.15 K, 40000 kPa | 696.2 | 715 | 741.6 | 762 | 792.8 | 807.1
353.15 K, 45000 kPa | 700.2 | 718.7 | 745.1 | 765.4 | 795.9 | 810
353.15 K, 50000 kPa | 704 | 722.4 | 748.5 | 768.7 | 799 | 813
353.15 K, 55000 kPa | 707.5 | 725.7 | 751.7 | 771.8 | 801.9 | 815.8
353.15 K, 60000 kPa | 711 | 729 | 754.9 | 774.8 | 804.7 | 818.6
353.15 K, 65000 kPa | 714.3 | 732.2 | 757.9 | 777.7 | 807.5 | 821.2
353.15 K, 70000 kPa | 717.5 | 735.2 | 760.9 | 780.5 | 810.2 | 823.8
353.15 K, 80000 kPa | 723.5 | 741 | 766.4 | 785.9 | 815.2 | 828.7
353.15 K, 90000 kPa | 729.1 | 746.5 | 771.7 | 791.1 | 820.1 | 833.5
353.15 K, 100000 kPa | 734.4 | 751.6 | 776.7 | 795.9 | 824.8 | 837.9
353.15 K, 110000 kPa | 739.6 | 756.6 | 781.5 | 800.6 | 829.3 | 842.3
353.15 K, 120000 kPa | 744.3 | 761.2 | 786 | 804.9 | 833.4 | 846.4
353.15 K, 130000 kPa | 748.8 | 765.6 | 790.2 | 809 | 837.5 | 850.3
353.15 K, 140000 kPa | 753.2 | 769.9 | 794.6 | 813.2 | 841.4 | 854.3
373.15 K, 100 kPa | – | – | – | – | – | 761.9
373.15 K, 1000 kPa | 636.8 | 658.8 | 688.9 | 712.2 | 746.6 | 762.8
373.15 K, 5000 kPa | 643.2 | 664.6 | 694.1 | 716.9 | 750.7 | 766.6
373.15 K, 10000 kPa | 650.5 | 671.2 | 700 | 722.4 | 755.5 | 771.1
373.15 K, 15000 kPa | 656.9 | 677.2 | 705.5 | 727.5 | 760.2 | 775.5
373.15 K, 20000 kPa | 662.9 | 682.7 | 710.6 | 732.2 | 764.4 | 779.5
373.15 K, 25000 kPa | 668.4 | 687.9 | 715.4 | 736.7 | 768.6 | 783.4
373.15 K, 30000 kPa | 673.6 | 692.7 | 719.9 | 740.9 | 772.4 | 787.1
373.15 K, 35000 kPa | 678.4 | 697.2 | 724.1 | 744.9 | 776 | 790.6
373.15 K, 40000 kPa | 682.8 | 701.4 | 728.1 | 748.7 | 779.7 | 794
373.15 K, 45000 kPa | 687.2 | 705.6 | 732 | 752.4 | 783 | 797.2
373.15 K, 50000 kPa | 691.2 | 709.3 | 735.5 | 755.9 | 786.3 | 800.3
373.15 K, 55000 kPa | 695.1 | 713 | 739.1 | 759.2 | 789.4 | 803.4
373.15 K, 60000 kPa | 698.8 | 716.6 | 742.4 | 762.4 | 792.4 | 806.3
373.15 K, 65000 kPa | 702.3 | 720.1 | 745.7 | 765.5 | 795.5 | 809.2
373.15 K, 70000 kPa | 705.7 | 723.2 | 748.8 | 768.5 | 798.2 | 811.9
373.15 K, 80000 kPa | 712.2 | 729.5 | 754.8 | 774.4 | 803.7 | 817.2
373.15 K, 90000 kPa | 718.3 | 735.4 | 760.4 | 779.8 | 808.9 | 822.3
373.15 K, 100000 kPa | 723.8 | 740.9 | 765.7 | 784.9 | 813.8 | 827
373.15 K, 110000 kPa | 729.2 | 746.1 | 770.7 | 789.8 | 818.5 | 831.6
373.15 K, 120000 kPa | 734.3 | 751 | 775.5 | 794.4 | 822.9 | 835.9
373.15 K, 130000 kPa | 739.1 | 755.7 | 780.1 | 798.9 | 827.3 | 840.2
373.15 K, 140000 kPa | 743.7 | 760.2 | 784.5 | 803.1 | 831.4 | 844.1
393.15 K, 100 kPa | – | – | – | – | – | 744.9
393.15 K, 1000 kPa | 617.4 | 639.3 | 670.1 | 693.9 | 729.1 | 745.8
393.15 K, 5000 kPa | 625 | 646.2 | 676.1 | 699.4 | 733.9 | 750.2
393.15 K, 10000 kPa | 633.5 | 653.8 | 683 | 705.6 | 739.3 | 755.3
393.15 K, 15000 kPa | 640.9 | 660.7 | 689.2 | 711.4 | 744.5 | 760.1
393.15 K, 20000 kPa | 647.6 | 666.9 | 694.9 | 716.6 | 749.2 | 764.6
393.15 K, 25000 kPa | 653.8 | 672.7 | 700.2 | 721.6 | 753.7 | 768.8
393.15 K, 30000 kPa | 659.5 | 678 | 705.2 | 726.3 | 758 | 772.9
393.15 K, 35000 kPa | 664.8 | 683.1 | 709.8 | 730.6 | 762.1 | 776.8
393.15 K, 40000 kPa | 669.7 | 687.7 | 714.2 | 734.8 | 765.9 | 780.4
393.15 K, 45000 kPa | 674.3 | 692.1 | 718.3 | 738.8 | 769.6 | 783.9
393.15 K, 50000 kPa | 678.7 | 696.3 | 722.3 | 742.6 | 773.1 | 787.3
393.15 K, 55000 kPa | 683 | 700.4 | 726.2 | 746.3 | 776.6 | 790.7
393.15 K, 60000 kPa | 687 | 704.1 | 729.8 | 749.7 | 779.8 | 793.8
393.15 K, 65000 kPa | 690.7 | 707.8 | 733.2 | 753.1 | 782.9 | 796.8
393.15 K, 70000 kPa | 694.4 | 711.4 | 736.7 | 756.4 | 786.1 | 799.8
393.15 K, 80000 kPa | 701.3 | 718.1 | 743.1 | 762.5 | 791.9 | 805.5
393.15 K, 90000 kPa | 707.8 | 724.3 | 749.2 | 768.3 | 797.5 | 810.9
393.15 K, 100000 kPa | 713.7 | 730.1 | 754.7 | 773.8 | 802.6 | 815.9
393.15 K, 110000 kPa | 719.4 | 735.7 | 760.1 | 778.9 | 807.7 | 820.8
393.15 K, 120000 kPa | 724.6 | 740.8 | 765 | 783.8 | 812.3 | 825.3
393.15 K, 130000 kPa | 729.7 | 745.7 | 769.8 | 788.5 | 816.8 | 829.8
393.15 K, 140000 kPa | 734.6 | 750.5 | 774.5 | 793 | 821.3 | 834
